Reference: patent US20140221301A1, “COMBINATION TREATMENT FOR CANCER” (priority 2011, published 2014)

Experiments:
[1] = tested on: TEX cells; test: Apoptosis by Annexin V flow cytometry in TEX cells; assay type: cell-based, human; conditions: over time
Protocol: FIG. 1. […] (A) TEX and (B) M9-ENL1 cells were plated in 96-well plates and drugs were added to the wells (5 μL per well) for final concentrations of 10 μM (shown) and 1 μM. Cell growth and viability was measured at 48 hours (M9-ENL-1) and 72 hours (TEX) by MTS assay. Cell viability is shown for each compound as a percent of cells treated with DMSO alone. (C) Leukemia, (D) myeloma, and (E) solid tumor cell lines were seeded in 96-well plates and then treated with increasing concentrations of tigecycline. Cell growth and viability was measured at 72 hours by MTS assay. Cell viability is expressed as mean percentage plus or minus SD (n=3) relative to vehicle-treated cells. […] Cell viability was measured at 72 hours by MTS assay. Cell viability is expressed as mean percentage plus or minus SD (n=3) relative to vehicle-treated cells.
Cell growth and viability was assessed by the MTS assay (Promega, Madison, Wis.) according to the manufacturer's instructions. Apoptosis and cell death was measured by Annexin V-fluroscein isothiocyanate (FITC; Biovision Research Products, Mountain View, Calif.), propidium iodide staining and flow cytometry according to the manufacturer's instructions and as previously described^30.

[2] = tested on: OCI-AML2 human leukemia cells; assay type: in vivo, SCID mice
Protocol: FIG. 3. Tigecycline has anti-leukemia activity in vivo. (A, B) Human leukemia cells (OCI-AML2) were injected subcutaneously into the flank of SCID mice. Seven days after injection, once tumors were palpable, mice were treated with tigecycline (50 mg/kg or 100 mg/kg twice daily by i.p. injection) or vehicle control (n=10 per group). Fourteen days after injection of cells, mice were sacrificed, tumors excised and the volume and mass of the tumors were measured. The tumor mass and the mean volume+SD are shown. Differences in tumor volume and mass were analyzed by an unpaired t-test: *p<0.001. (C) Tumours from two control mice, and three tigecycline-treated mice were excised after 5 days of treatment and total proteins were extracted and analyzed by western blotting for Cox-1, Cox-2, Cox-4, and tubulin. (D) Primary cells from three AML patients were injected intra-femorally into the right femur of female sub-lethally irradiated NOD/SCID mice. Three weeks after injection mice were treated with tigecycline (100 mg/kg by i.p. injection daily) or vehicle control (n=10 per group) for three weeks. Following treatment, human leukemia cell engraftment in the injected right femur was measured by FACS analysis for human CD45^+CD19^−CD33^+ cells. Data represent mean±SD of engrafted human cells. Cells from one patient experiment were used to assess secondary engraftment in a second generation of NOD/SCID mice. Equal numbers of viable leukemia cells from bone marrow of control and tigecycline treated mice were injected into irradiated NOD/SCID mice, which were not treated with tigecycline. Six weeks later, human leukemia cell engraftment in the injected right femur was measured by FACS analysis for human CD45^+CD19^−CD33^+cells. (*p<0.005, Student's t-test).
OCI-AML2 human leukemia cells (1×10^6) were injected subcutaneously into the flanks of SCID mice (Ontario Cancer Institute, Toronto, ON). Seven days after injection, once tumours were palpable, mice were treated with tigecycline twice daily (50 mg/kg or 100 mg/kg by i.p. injection) or vehicle control (n=10 per group) for 14 days. Tumor volume (tumor length x width^2×0.5236) was measured three times a week using calipers. Twenty-one days after injection of cells, mice were sacrificed, tumors excised and the volume and mass of the tumors were measured.
Given the effects of tigecycline as a potential anti-leukemia agent, tigecycline in mouse models of leukemia was evaluated. To evaluate the anti-tumor efficacy of tigecycline in vivo, human OCI-AML2 leukemia cells were injected into the flank of SCID mice. […] Tumor volume and mass were measured over time (FIG. 3A, B). […]

[3] = tested on: TEX cells; test: ROS generation (DCF-DA, DHE) in TEX cells; assay type: cell-based, human; conditions: time-points up to 24 hours
Protocol: FIG. 4. […] (A) Cells from TEX, OCI-AML2 and two primary AML patients were treated with increasing concentrations (2.5 μM and 5 μM) of tigecycline for 36 and 48 hours of tigecycline. Total proteins were extracted and analyzed by western blotting for Cox-1, Cox-2, Cox-4, grp78, XIAP, actin and tubulin. (B) TEX and AML patient cells were treated with increasing concentrations (2.5 μM and 5 μM) of tigecycline. Cox-1, Cox-2, and Cox-4 mRNA expression relative 18S was determined by quantitative RT-PCR. Data is shown as mean±SD. (C) TEX cells were treated with increasing concentrations of tigecycline and chloramphenicol (CAP) for 72 hours. Complex I, II and IV enzyme activity relative to citrate synthase activity was determined as described in materials and methods. (D) Cells from TEX, primary AML patients, and normal donors were treated with increasing concentrations of tigecycline. Mitochondrial membrane potential (ΔΨ) was determined by staining cells with JC-1 dye, and flow cytometry analysis (Red/Green ratio). Reactive oxygen species generation (ROS) was determined by staining with h2-DCFDA and Dihydroethidium (DHE).
A byproduct of the mitochondrial enzyme activities of the electron transport chain is the generation of reactive oxygen species (ROS). […] Therefore, the role of tigecycline on ROS generation in leukemia cells by analyzing hydrogen peroxide ions (H2O2) using a dichlorofluorescein dye (DCF-DA), and superoxide anions using dihydroethidium (DHE) was examined.

[4] = 50 mg/kg or 100 mg/kg twice daily i.p., 14 days

For CN(C)c1cc(NC(=O)CNC(C)(C)C)c(O)c2c1C[C@H]1C[C@H]3[C@H](N(C)C)C(O)=C(C(N)=O)C(=O)[C@@]3(O)C(O)=C1C2=O [tigecycline], the “apoptosis, percentage of cells labeled by Annexin V” value [1] was “time-dependent increases in apoptosis”, the “expression of Cox-1 and Cox-2 relative to Cox-4 in tumours” value ([2]; 50 mg/kg bid for 5 days, western blotting) was “preferential decreased expression” and the “decrease of tumor mass compared to vehicle control” value [2, 4] was “up to 70%”. For the same compound, the “decrease of tumor volume compared to vehicle control” value [2, 4] was “up to 70%”, the “toxicity in treated mice” value ([2]; mouse, in vivo) was “No evidence of toxicity” and the ROS generation [3] was “no observed increase”.
